Source: the supplement of paper PMC10331698
± gives the standard deviation of the averaged measurements.

Legend:
Assay in all cases: level (log10 ratio to DMSO vehicle control); higher = higher biomarker level / cell amount than vehicle control
Details in all cases: in DMSO
[1] = compound: C=C(C)C(=O)OCCC(F)(F)C(F)(F)C(F)(F)C(F)(F)C(F)(C(F)(F)F)C(F)(F)F [(Perfluoro-5-methylhexyl)ethyl 2-methylprop-2-enoate]
Description: (§1)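 BioMAP Diversity Plus panel of 12 human primary cell co-culture systems (3C, 4H, LPS, SAg, BT, BF4T, BE3C, CASM3C, HDF3CGF, KF3CT, MyoF, Mphg). Compounds were added 1 h before stimulation and left for 24 h (MyoF 48 h; BT 72 h for soluble read-outs or 6 d for IgG). Biomarkers were read by ELISA, cytotoxicity by SRB, PBMC viability and proliferation by Alamar Blue. Each well value was divided by the mean of 8 DMSO control wells on the same plate and log10 transformed; duplicate blinded samples were tested at 4 concentrations.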

[2] = compound: C=CC(F)(F)C(F)(F)C(F)(F)C(F)(F)C(F)(F)C(F)(F)C(F)(F)C(F)(F)C=C [1,8-Divinylperfluorooctane]
Description: as §1

[3] = compound: FC(F)C(F)(F)COCC1CO1 [((2,2,3,3-Tetrafluoropropoxy)methyl)oxirane]
Description: as §1

Heptafluorobutyramide = compound: NC(=O)C(F)(F)C(F)(F)C(F)(F)F [Heptafluorobutyramide]
Description: as §1

Pentafluoropropionamide = compound: NC(=O)C(F)(F)C(F)(F)F [Pentafluoropropionamide]
Description: as §1

[4] = compound: NCC(F)(F)C(F)(F)C(F)(F)C(F)(F)C(F)(F)C(F)(F)C(F)(F)F [1H,1H-Perfluorooctylamine]
Description: as §1

[5] = compound: O=C(O)C(F)(F)OC(F)(F)C(F)(F)OC(F)(F)F [Perfluoro-3,6-dioxaheptanoic acid]
Description: as §1

Test System	level (log10) ([1]; 6700 nM)	level (log10) ([1]; 20000 nM)	level (log10) ([2]; 6700 nM)	level (log10) ([2]; 20000 nM)	level (log10) ([3]; 6700 nM)	level (log10) ([3]; 20000 nM)	level (log10) ([3]; 60000 nM)	level (log10) (Heptafluorobutyramide; 6700 nM)	level (log10) (Heptafluorobutyramide; 20000 nM)	level (log10) (Heptafluorobutyramide; 60000 nM)	level (log10) (Pentafluoropropionamide; 6700 nM)	level (log10) (Pentafluoropropionamide; 20000 nM)	level (log10) (Pentafluoropropionamide; 60000 nM)	level (log10) ([4]; 6700 nM)	level (log10) ([4]; 20000 nM)	level (log10) ([4]; 60000 nM)	level (log10) ([5]; 6700 nM)	level (log10) ([5]; 20000 nM)	level (log10) ([5]; 60000 nM)
CASM3C:CD141/Thrombomodulin	-0.0185 ± 0.069	0.0165 ± 0.098	0.0015 ± 0.022	-0.0145 ± 0.0078	-0.0315 ± 0.012	0.0015 ± 0.0092	0.0225 ± 0.033	0.017 ± 0.033	0.0065 ± 0.033	-0.016 ± 0.041	-0.023 ± 0.034	-0.0315 ± 0.011	-0.0555 ± 0.015	-0.017 ± 0.025	-0.0055 ± 0.005	0.031 ± 0.045	0.032 ± 0.0085	0.019 ± 0.03	0.0295 ± 0.013
lMphg:SRB	-0.0035 ± 0.0035	-0.0105 ± 0.0021	0.0125 ± 0.00071	0.019 ± 0.0028	-0.008 ± 0.0042	0 ± 0.0028	-0.0125 ± 0.0021	-0.015 ± 0.0099	-0.0025 ± 0.005	0 ± 0.02	0.004 ± 0.0071	-0.0025 ± 0.0092	-0.001 ± 0.0014	-0.008 ± 0.0085	0.001 ± 0.0042	-0.002 ± 0.0099	-0.0015 ± 0.0092	0.0025 ± 0.011	-0.002 ± 0.016
CASM3C:CD106/VCAM-1	-0.017 ± 0.014	-0.0175 ± 0.026	-0.018 ± 0.0042	-0.019 ± 0.02	0.0035 ± 0.022	-0.012 ± 0.037	0.026 ± 0.033	-0.0215 ± 0.053	-0.0085 ± 0.033	-0.0265 ± 0.059	-0.016 ± 0.016	-0.014 ± 0.02	-0.022 ± 0.011	-0.018 ± 0.058	-0.007 ± 0.035	-0.0105 ± 0.015	0.0345 ± 0.029	0.0105 ± 0.037	-0.06 ± 0.021
HDF3CGF:PAI-I	-0.037 ± 0.0028	-0.0385 ± 0.019	0 ± 0.013	-0.0065 ± 0.012	0.0065 ± 0.016	0.0065 ± 0.0064	0.0035 ± 0.011	-0.0105 ± 0.018	-0.0275 ± 0.028	-0.0125 ± 0.03	0.0125 ± 0.04	-0.011 ± 0.044	0 ± 0.014	0.008 ± 0.033	-0.018 ± 0.0042	-0.003 ± 0.023	-0.0525 ± 0.00071	0.0225 ± 0.037	0.06
CASM3C:Proliferation	-0.036 ± 0.0014	-0.054 ± 0.071	-0.018 ± 0.027	0.0305 ± 0.013	-0.0215 ± 0.011	-0.001 ± 0.014	0.0145 ± 0.032	-0.0675 ± 0.098	0.0315 ± 0.018	-0.0275 ± 0.087	-0.0115 ± 0.015	-0.0025 ± 0.011	0.0235 ± 0.069	0.0025 ± 0.012	0.005 ± 0.016	-0.0095 ± 0.0092	0.02 ± 0.016	-0.034 ± 0.065	-0.077 ± 0.017
HDF3CGF:SRB	0.0055 ± 0.0092	0.008 ± 0.0028	0.025 ± 0.051	0.069 ± 0.14	0.004 ± 0.0057	-0.002 ± 0.02	-0.011 ± 0.1	0.018 ± 0.0014	0.0035 ± 0.025	0.0075 ± 0.03	-0.0105 ± 0.011	0.0265 ± 0.079	0.0445 ± 0.086	-0.0315 ± 0.0078	0.0335 ± 0.046	0.0315 ± 0.12	0 ± 0.013	-0.015 ± 0.018	0.0175 ± 0.039
HDF3CGF:Proliferation 72hr	-0.015 ± 0.0028	-0.014	0.103 ± 0.028	-0.046 ± 0.028	-0.054 ± 0.0057	-0.023 ± 0.0042	-0.099 ± 0.0014	0.0015 ± 0.088	0.016 ± 0.041	-0.0205 ± 0.053	0.0225 ± 0.018	0.045 ± 0.042	0.076 ± 0.013	-0.041 ± 0.045	0.004 ± 0.035	-0.016 ± 0.041	0.0205 ± 0.05	0.055 ± 0.034	0.06 ± 0.0014
MyoF:CXCL8/IL-8	-0.011 ± 0.011	-0.0255 ± 0.0064	-0.028 ± 0.014	0.0085 ± 0.035	-0.0175 ± 0.005	-0.0145 ± 0.018	0.0095 ± 0.025	-0.0015 ± 0.023	-0.014 ± 0.011	0.002 ± 0.0099	-0.031 ± 0.013	-0.026 ± 0.016	0.013 ± 0.045	0.0025 ± 0.021	-0.0095 ± 0.0035	-0.002 ± 0.023	-0.0255 ± 0.08	-0.0035 ± 0.03	0.0435 ± 0.019
3C:CD62E/E-Selectin	-0.0095 ± 0.018	-0.0175 ± 0.0021	-0.0305 ± 0.025	-0.014 ± 0.024	0.0085 ± 0.0021	0.0105 ± 0.03	0.003 ± 0.047	-0.0085 ± 0.03	-0.017 ± 0.038	-0.0385 ± 0.0064	-0.0075 ± 0.0078	-0.005 ± 0.011	0.005 ± 0.018	-0.0045 ± 0.047	0.022 ± 0.02	0.0335 ± 0.011	-0.0045 ± 0.016	-0.02 ± 0.017	0.01 ± 0.0071
MyoF:CD106/VCAM-1	0.0095 ± 0.0092	-0.013 ± 0.0028	0.006 ± 0.0042	0.0075 ± 0.018	-0.0075 ± 0.0035	-0.025 ± 0.031	-0.011 ± 0.044	-0.0165 ± 0.0064	-0.017 ± 0.028	-0.0145 ± 0.018	-0.013 ± 0.017	0.006 ± 0.028	-0.0075 ± 0.0021	-0.007 ± 0.0085	-0.0295 ± 0.011	0.002 ± 0.013	0.001 ± 0.048	-0.0175 ± 0.028	-0.021 ± 0.051
HDF3CGF:CCL2/MCP-1	-0.0335 ± 0.0092	-0.024 ± 0.023	-0.022 ± 0.0042	-0.005 ± 0.011	-0.0005 ± 0.0078	-0.001 ± 0.013	0.0005 ± 0.0078	0.0005 ± 0.04	0.0055 ± 0.036	0.0185 ± 0.066	-0.024 ± 0.034	-0.0245 ± 0.012	-0.015 ± 0.031	-0.006 ± 0.016	-0.0045 ± 0.012	-0.0165 ± 0.0078	0.0155 ± 0.029	0.027 ± 0.023	0.0055 ± 0.049
BE3C:MMP-9	0.0245 ± 0.039	0.022 ± 0.044	-0.0165 ± 0.011	-0.0165 ± 0.012	-0.0135 ± 0.015	-0.03 ± 0.028	-0.005 ± 0.0028	-0.0135 ± 0.021	0.005 ± 0.0071	0.0005 ± 0.012	-0.002 ± 0.011	-0.02 ± 0.031	0.004 ± 0.017	0.001 ± 0.023	-0.0105 ± 0.032	0.005 ± 0.048	-0.0395 ± 0.005	-0.026 ± 0.0042	-0.019 ± 0.047
CASM3C:HLA-DR	-0.0175 ± 0.019	-0.01 ± 0.0085	-0.0125 ± 0.011	-0.0155 ± 0.0092	0.001 ± 0.0085	-0.001 ± 0.0099	0.0225 ± 0.043	0.003 ± 0.024	-0.0025 ± 0.0021	-0.012 ± 0.038	-0.005 ± 0.0042	0.0045 ± 0.0092	-0.001 ± 0.018	-0.01 ± 0.0028	-0.0085 ± 0.032	0.029 ± 0.0042	-0.0355 ± 0.069	-0.0385 ± 0.074	-0.047 ± 0.057
KF3CT:CCL2/MCP-1	-0.0235 ± 0.0092	-0.0125 ± 0.037	-0.0165 ± 0.016	0.009 ± 0.042	-0.0245 ± 0.0021	-0.0045 ± 0.026	0.012 ± 0.013	-0.006 ± 0.0014	-0.009 ± 0.013	0.0165 ± 0.057	-0.0205 ± 0.015	-0.0285 ± 0.023	0.0155 ± 0.071	-0.0055 ± 0.043	-0.021 ± 0.013	0.0045 ± 0.0078	-0.0175 ± 0.016	-0.0345 ± 0.0078	0.0395 ± 0.028
CASM3C:Serum Amyloid A	-0.0325 ± 0.021	0.025 ± 0.0085	-0.0145 ± 0.0035	-0.011 ± 0.0085	-0.004 ± 0.011	0.0215 ± 0.0035	-0.0235 ± 0.0092	-0.0555 ± 0.023	-0.0445 ± 0.042	-0.0065 ± 0.096	0.0045 ± 0.015	-0.0055 ± 0.0035	0.0245 ± 0.005	0.0345 ± 0.036	0.043 ± 0.069	0.015 ± 0.061	-0.038 ± 0.055	-0.014 ± 0.0085	-0.002 ± 0.086
